We go through 6 compounds from article PMC10220878 (Pharmaceutics, 2023).

Series [1] has as its system bEnd.3 cells. Nature of the series: MTS cell viability assay in bEnd.3 cells. (In general: Tetrazolium dyes change colour on reduction, which living cells bring about.)
The test system of series [2] is Oct-2. The settings on record: cited from earlier work; for IC50: read-out: IC50 for 10 µM Metformin Uptake, Oct-2, 10 µM metformin.
The test system of series [3] is mouse primary astrocytes. Briefly: MTS cell viability assay in mouse primary astrocytes. It is filed as cell-based. The settings on record: 3 h, concentrations used in permeability studies (MF 1, 10, 20 mM; mitoxantrone 25 µM; corticosterone 150 µM).
Series [4] deals with Oct-1. The settings on record: cited from earlier work; for IC50: read-out: IC50 for 10 µM Metformin Uptake, Oct-1, 10 µM metformin.
The test system of series [5] is Oct-3. The settings on record: cited from earlier work; for IC50: read-out: IC50 for 10 µM Metformin Uptake, Oct-3, 10 µM metformin.
The test system of series [6] is hOCT2. The settings on record: read-out: apparent IC50 of MF for uptake of tracer [14C] MF; cited from earlier work.
For series [7] the following is noted: human subjects; cited from earlier work.
In series [8] the target is T1, P-GP (Homo sapiens, UniProt P08183).
T1 construct: host or cells: MDR1-MDCK (MDCK cells overexpressing MDR1)
Briefly: P-glycoprotein efflux transporter substrate assay (MDR1-MDCK transwell). In kind it is in vitro ADME. The procedure: (§1) For P-GP efflux assay, MDR1-MDCK 12-well transport assay (MB Biosciences LLC, Natick, MA, USA) was used. The cells were maintained in high glucose DMEM media supplied with 10% FBS, non-essential amino acid, penicillin/streptomycin, L-glutamine, and colchicine as recommended by the supplier. After the shipping medium was changed to a fresh MDR1-MDCK cell culture medium, the plate was kept in the incubator for 24 h before performing the experiment. […] The inhibitor was present on both sides of the compartments during pre-incubation of 30 min and during the transport experiment. After 120 min of incubation at 37 °C, samples were collected from the basolateral chamber and quantified by LC-MS/MS method. […] The permeability coefficient (PC, cm/s) was calculated using the published literature method. The PC value from apical (A) to basolateral (B) compartment in the presence and absence of CsA was used to calculate the unidirectional flux ratio (UFR), which is defined by the following equation:(3) UFR=PC, A−to−B+CsA/PC,A−to−B−CsA

Series [9] concerns the target T2, P-gp (MDR1) (Homo sapiens, UniProt P08183).
T2 construct: host or cells: MDR1-MDCK (MDCK cells overexpressing MDR1)
Described as above. In kind it is in vitro ADME. The conditions noted are these: dog, MDR1-MDCK, 10 µM MF, 120 min. The protocol:
as §1

The subject of series [10] is in vitro co-culture model of BBB (bEnd.3 cells and mouse primary astrocytes). Briefly: NaF permeability across BBB co-culture (barrier integrity). In kind it is in vitro ADME. The settings on record: Figure S1.
Where [11] appears, read: 3 h, concentrations used in permeability studies (MF 1, 10, 20 mM; mitoxantrone 25 µM; corticosterone 150 µM).
[12] abbreviates: single transporter-expressing cell line, read-out: apparent Km of saturable MF uptake.

SMILES strings stand for the structures. Several values for one entry are separate records, joined by “and”; a condition that tells them apart may be missing. Equal entries are not always repeated. Entries after “also recorded” stand apart in the source; their conditions may differ.

T2 sequence (P08183 whole entry): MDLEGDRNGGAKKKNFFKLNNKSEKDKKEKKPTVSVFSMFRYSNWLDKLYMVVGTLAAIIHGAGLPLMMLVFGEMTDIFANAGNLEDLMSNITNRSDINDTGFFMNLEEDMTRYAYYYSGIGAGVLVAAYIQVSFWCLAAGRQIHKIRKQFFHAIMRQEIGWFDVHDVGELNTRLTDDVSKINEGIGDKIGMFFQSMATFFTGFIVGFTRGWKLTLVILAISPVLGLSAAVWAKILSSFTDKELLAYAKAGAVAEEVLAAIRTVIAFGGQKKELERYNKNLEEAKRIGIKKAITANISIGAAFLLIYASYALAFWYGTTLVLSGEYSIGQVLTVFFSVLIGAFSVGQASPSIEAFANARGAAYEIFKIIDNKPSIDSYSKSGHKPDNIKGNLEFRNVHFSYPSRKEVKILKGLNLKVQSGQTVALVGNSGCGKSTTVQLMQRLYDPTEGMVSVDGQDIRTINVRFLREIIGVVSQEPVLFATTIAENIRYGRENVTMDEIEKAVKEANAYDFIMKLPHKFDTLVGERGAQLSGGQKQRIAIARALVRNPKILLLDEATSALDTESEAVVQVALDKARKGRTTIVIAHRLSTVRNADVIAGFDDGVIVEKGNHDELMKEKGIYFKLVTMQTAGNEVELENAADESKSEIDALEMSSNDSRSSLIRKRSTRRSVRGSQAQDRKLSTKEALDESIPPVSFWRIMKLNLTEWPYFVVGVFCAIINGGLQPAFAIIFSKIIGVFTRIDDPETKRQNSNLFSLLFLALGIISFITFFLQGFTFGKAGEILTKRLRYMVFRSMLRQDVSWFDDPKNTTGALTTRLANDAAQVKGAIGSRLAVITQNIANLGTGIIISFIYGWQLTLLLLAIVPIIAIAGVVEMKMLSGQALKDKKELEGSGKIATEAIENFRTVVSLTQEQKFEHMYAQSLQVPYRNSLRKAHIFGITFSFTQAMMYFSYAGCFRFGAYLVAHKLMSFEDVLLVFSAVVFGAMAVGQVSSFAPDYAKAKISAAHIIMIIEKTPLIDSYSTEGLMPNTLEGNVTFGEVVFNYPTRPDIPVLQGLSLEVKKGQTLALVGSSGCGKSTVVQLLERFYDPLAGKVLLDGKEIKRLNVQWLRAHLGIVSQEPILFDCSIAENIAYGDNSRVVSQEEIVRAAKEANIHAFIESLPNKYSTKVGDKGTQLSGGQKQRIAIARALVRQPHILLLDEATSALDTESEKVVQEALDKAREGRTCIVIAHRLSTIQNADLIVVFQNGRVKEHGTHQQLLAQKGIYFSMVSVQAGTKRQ
T1 sequence (P08183 whole entry): as above

`CNCCCN1c2ccccc2CCc2ccccc21` [desipramine]: the “toxicity to cells (MTS cell viability)” value in [1] (200 µM, 4 h incubation) was “toxic; also recorded: significantly affected”; in series [1] (100 µm, 4 h incubation), “significantly affected”.
The IC50 is the midpoint of a concentration-inhibition curve. `O=C1c2c(O)ccc(O)c2C(=O)c2c(NCCNCCO)ccc(NCCNCCO)c21` [Mitoxantrone]: the “toxicity to cells (MTS cell viability)” value in series [1] (setting [11]) and in series [3] was “not toxic” throughout. In addition, the figures for the IC50 in series [2], in [4] and in series [5] were 135 µM, 3 µM and 174 µM, respectively. The “IC50 for Oct1 lower than for Oct2 and Oct3 (selectivity)” value in [4] (estimated IC50) is 40–60 fold. In addition, the “inhibition of the respective transporter (Oct1)” value in [4] (mitoxantrone at 25 µM, based on Table 1) was more than 80%.
Consider `C[n+]1ccc(-c2ccccc2)cc1` [MPP+], for which, in series [1] (5 mM, 4 h incubation), the “toxicity to cells (MTS cell viability)” value is “toxic; also recorded: significantly affected”.
As usually defined, the Km is the substrate concentration at which the rate is half of its maximum. One may read the Papp B→A as the apparent permeability from the basolateral to the apical side of a cell layer. Broadly, the Papp A→B is the apparent permeability from the apical to the basolateral side of a cell layer. With `CN(C)C(=N)N=C(N)N` [MF, metformin], the “toxicity to cells (MTS cell viability)” value in [1] (setting [11]) and in series [3] was “not toxic” each time. The Km in series [2] (setting [12]) was 600 µM; in series [4] (setting [12]), 3100 µM; in [5] (setting [12]), 2600 µM. Besides, the IC50 in series [6] was approximately 2000 µM. In series [7], the steady-state concentration is 1.8 µg/mL and 13 µM. Further, the “Metformin PC, A > B, +CsA” value in series [8] (MDR1-MDCK, 10 µM MF, 120 min, with CsA 10 µM) is reported as 3.28 ± 0.06 1 × 10^−7 cm/s. In [8] (P-GP overexpressing cell line), the “interaction with the efflux transporter P-GP” value is “does not interact”. In addition, the Papp B→A at 120 min, 10 µM in series [9] worked out at 0.163 ± 0.006 ×10⁻⁶ cm/s. Moreover, the Papp A→B at 120 min, 10 µM in [9] (without CsA) was found to be 0.258 ± 0.018 ×10⁻⁶ cm/s.
Regarding `C[C@]12C[C@H](O)[C@H]3[C@@H](CCC4=CC(=O)CC[C@@]43C)[C@@H]1CC[C@@H]2C(=O)CO` [Corticosterone], the “toxicity to cells (MTS cell viability)” value in series [1] (setting [11]) and in [3] was “not toxic” throughout. Besides, the IC50 is 1.3 µM in series [2], 3.2 µM in [4] and 0.2 µM in series [5].
Consider `O=C([O-])c1ccccc1-c1c2ccc(=O)cc-2oc2cc([O-])ccc12.[Na+].[Na+]` [NaF, sodium fluorescein], for which the “PC of NaF compared with [14C] sucrose” value in series [10] was “no statistically significant difference”.
